Experimental data reported in the NIST ThermoML archive (doi:10.1016/j.fluid.2015.10.026).

Details: Liquid, Brillouin light scattering

CCC(C)(C)OC [2-methoxy-2-methylbutane]
Details	speed of sound [m/s]
293.15 K, 0 kPa	1133.3
293.15 K, 1000 kPa	1139.7
293.15 K, 2500 kPa	1149
293.15 K, 4000 kPa	1158.3
293.15 K, 5500 kPa	1167.7
293.15 K, 7000 kPa	1177.2
293.15 K, 8500 kPa	1186.7
293.15 K, 10000 kPa	1196.4
303.15 K, 10 kPa	1089.4
303.15 K, 1000 kPa	1099.1
303.15 K, 2500 kPa	1109.3
303.15 K, 4000 kPa	1119.3
303.15 K, 5500 kPa	1129.3
303.15 K, 7000 kPa	1139.3
303.15 K, 8500 kPa	1149.2
303.15 K, 10000 kPa	1159
313.15 K, 10 kPa	1046.4
313.15 K, 1000 kPa	1058.3
313.15 K, 2500 kPa	1069.4
313.15 K, 4000 kPa	1080.3
313.15 K, 5500 kPa	1091
313.15 K, 7000 kPa	1101.4
313.15 K, 8500 kPa	1111.7
313.15 K, 10000 kPa	1121.8
323.15 K, 20 kPa	1004.2
323.15 K, 1000 kPa	1017.4
323.15 K, 2500 kPa	1029.4
323.15 K, 4000 kPa	1041.1
323.15 K, 5500 kPa	1052.5
323.15 K, 7000 kPa	1063.5
323.15 K, 8500 kPa	1074.2
323.15 K, 10000 kPa	1084.6
333.15 K, 20 kPa	962.62
333.15 K, 1000 kPa	976.26
333.15 K, 2500 kPa	989.25
333.15 K, 4000 kPa	1001.8
333.15 K, 5500 kPa	1013.9
333.15 K, 7000 kPa	1025.6
333.15 K, 8500 kPa	1036.8
333.15 K, 10000 kPa	1047.6
343.15 K, 40 kPa	921.56
343.15 K, 1000 kPa	934.97
343.15 K, 2500 kPa	948.94
343.15 K, 4000 kPa	962.37
343.15 K, 5500 kPa	975.26
343.15 K, 7000 kPa	987.61
343.15 K, 8500 kPa	999.41
343.15 K, 10000 kPa	1010.7
353.15 K, 60 kPa	880.86
353.15 K, 1000 kPa	893.5
353.15 K, 2500 kPa	908.48
353.15 K, 4000 kPa	922.83
353.15 K, 5500 kPa	936.54
353.15 K, 7000 kPa	949.61
353.15 K, 8500 kPa	962.05
353.15 K, 10000 kPa	973.86
363.15 K, 90 kPa	840.4
363.15 K, 1000 kPa	851.87
363.15 K, 2500 kPa	867.87
363.15 K, 4000 kPa	883.16
363.15 K, 5500 kPa	897.74
363.15 K, 7000 kPa	911.59
363.15 K, 8500 kPa	924.74
363.15 K, 10000 kPa	937.16
373.15 K, 120 kPa	800.06
373.15 K, 1000 kPa	810.06
373.15 K, 2500 kPa	827.11
373.15 K, 4000 kPa	843.38
373.15 K, 5500 kPa	858.86
373.15 K, 7000 kPa	873.55
373.15 K, 8500 kPa	887.46
373.15 K, 10000 kPa	900.58
383.15 K, 160 kPa	759.72
383.15 K, 1000 kPa	768.09
383.15 K, 2500 kPa	786.2
383.15 K, 4000 kPa	803.47
383.15 K, 5500 kPa	819.89
383.15 K, 7000 kPa	835.47
383.15 K, 8500 kPa	850.21
383.15 K, 10000 kPa	864.1
393.15 K, 200 kPa	719.27
393.15 K, 1000 kPa	725.95
393.15 K, 2500 kPa	745.14
393.15 K, 4000 kPa	763.44
393.15 K, 5500 kPa	780.85
393.15 K, 7000 kPa	797.37
393.15 K, 8500 kPa	813
393.15 K, 10000 kPa	827.74
403.15 K, 240 kPa	678.61
403.15 K, 1000 kPa	683.64
403.15 K, 2500 kPa	703.93
403.15 K, 4000 kPa	723.29
403.15 K, 5500 kPa	741.73
403.15 K, 7000 kPa	759.25
403.15 K, 8500 kPa	775.83
403.15 K, 10000 kPa	791.49
413.15 K, 300 kPa	637.63
413.15 K, 1000 kPa	641.15
413.15 K, 2500 kPa	662.56
413.15 K, 4000 kPa	683.02
413.15 K, 5500 kPa	702.53
413.15 K, 7000 kPa	721.09
413.15 K, 8500 kPa	738.7
413.15 K, 10000 kPa	755.35
423.15 K, 360 kPa	596.25
423.15 K, 1000 kPa	598.5
423.15 K, 2500 kPa	621.05
423.15 K, 4000 kPa	642.63
423.15 K, 5500 kPa	663.25
423.15 K, 7000 kPa	682.91
423.15 K, 8500 kPa	701.6
423.15 K, 10000 kPa	719.33
433.15 K, 440 kPa	554.37
433.15 K, 1000 kPa	555.68
433.15 K, 2500 kPa	579.38
433.15 K, 4000 kPa	602.12
433.15 K, 5500 kPa	623.89
433.15 K, 7000 kPa	644.7
433.15 K, 8500 kPa	664.54
433.15 K, 10000 kPa	683.41
443.15 K, 540 kPa	511.92
